# Measured values reported in patent US20230165873A1, “Methods of Use for Single Molecule Compounds Providing Multi-Target Inhibition to Treat Covid 19” (priority 2020, published 2023).
# Molecular target: mTOR (Homo sapiens, UniProt P42345)
# Assay: mTOR in vitro inhibition
# Format: biochemical
# Settings: not given
# Method: (§1) The kinase or bromodomain inhibitory activity of a compound of the invention can be determined by routine methods known to the skilled artisan without undue experimentation, or by procuring relevant analysis by a commercial vendor offering such services. […] In vivo, PI3K inhibition can be determined from target tissue biopsies by standard tissue processing in which cells are disrupted and Western Blot analysis is performed to determine the presence or absence of pAKT (substrate of PI3K) relative to a control sample. PI3K inhibition assays and BTK inhibition assays are known in the art and can be procured commercially through vendors such as Reaction Biology (Malvern, PA). The activity of a compound of the invention as an inhibitor of a bromodomain-containing protein, such as a BET protein, including BRD2, BRD3, BRD4, and/or BRDT, or an isoform or mutant thereof, may be determined in vitro, in vivo, or in a cell line. In vitro assays include assays that determine inhibition of bromodomain-containing proteins. Alternatively, inhibitor binding may be determined by running a competition experiment where a provided compound is incubated with a bromodomain-containing protein, such as a BET protein bound to known ligands, labeled or unlabeled. In vitro bromodomain inhibition assays can be performed using Alpha Screen Technology (Perkin Elmer Life and Analytical Sciences, Shelton, CT). In vivo bromodomain inhibition can be determined indirectly by evaluating the amount of a protein whose gene transcription is influenced or controlled by the bromodomain protein, for example, MYCN protein transcription is controlled by BRD4 (J.E. Delmore et al., Cell 2011, 146, 904-917; A. Puissant, Cancer Discov. 2013, 3, 308-323).
# (§2) IC50 inhibition data against the indicated targets were determined for compounds of the invention using standard in vitro assays (Tables 8 and 9).
row,Compound,IC50
1,CN(C)C(=O)c1cc2cnc(Nc3ccc(-c4csc5c(=O)cc(N6CCOCC6)oc45)cc3)nc2n1C1CCCC1 [Compound 6],1 to 10 µM
2,CN(C)C(=O)c1cc2cnc(Nc3ccc(-c4csc5c(=O)cc(N6CCOCC6)oc45)nc3)nc2n1C1CCCC1 [Compound 7],1 to 10 µM

# Molecular target: T1, BRD4-1 (Homo sapiens, UniProt O60885)
# T1 construct: BRD4-1
# Assay: BRD4-1 in vitro inhibition
# Format: binding
# Settings: not given
# Method: as §1
row,Compound,IC50
1,CN(C)C(=O)c1cc2cnc(Nc3ccc(-c4csc5c(=O)cc(N6CCOCC6)oc45)nc3)nc2n1C1CCCC1 [Compound 7],10 to 45 µM
2,Cc1nn(-c2ccnc(Nc3ccc(-c4csc5c(=O)cc(N6CCOCC6)oc45)cc3)n2)cc1CN1CCC1 [Compound 54],1 to 10 µM

# Molecular target: CDK6 cyclinD1 (Homo sapiens, UniProt Q00534)
# Assay: CDK6 cyclinD1 in vitro inhibition
# Format: biochemical
# Settings: not given
# Method: as §1, §2
# CDK6 cyclinD1, sequence (Q00534 whole entry): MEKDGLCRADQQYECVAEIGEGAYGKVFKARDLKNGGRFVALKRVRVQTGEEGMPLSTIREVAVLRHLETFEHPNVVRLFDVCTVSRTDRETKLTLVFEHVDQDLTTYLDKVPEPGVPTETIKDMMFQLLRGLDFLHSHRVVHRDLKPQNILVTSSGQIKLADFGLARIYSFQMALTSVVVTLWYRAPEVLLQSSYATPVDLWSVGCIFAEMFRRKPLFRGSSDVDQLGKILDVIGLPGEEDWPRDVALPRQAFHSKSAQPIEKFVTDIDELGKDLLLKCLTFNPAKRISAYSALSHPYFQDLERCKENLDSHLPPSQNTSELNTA
# CDK6 cyclinD1, sequence (P24385 whole entry partner): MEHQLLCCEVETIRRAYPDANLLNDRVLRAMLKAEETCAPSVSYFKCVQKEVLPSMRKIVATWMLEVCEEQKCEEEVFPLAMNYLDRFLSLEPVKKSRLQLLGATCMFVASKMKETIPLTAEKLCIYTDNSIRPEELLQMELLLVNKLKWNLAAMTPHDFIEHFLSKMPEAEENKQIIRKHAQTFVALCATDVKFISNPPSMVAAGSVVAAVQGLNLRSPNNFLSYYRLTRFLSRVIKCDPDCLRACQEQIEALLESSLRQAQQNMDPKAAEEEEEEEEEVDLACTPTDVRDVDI
row,Compound,IC50
1,CN(C)C(=O)c1cc2cnc(Nc3ccc(-c4csc5c(=O)cc(N6CCOCC6)oc45)cc3)nc2n1C1CCCC1 [Compound 6],< 0.5 µM
2,CN(C)C(=O)c1cc2cnc(Nc3ccc(-c4csc5c(=O)cc(N6CCOCC6)oc45)nc3)nc2n1C1CCCC1 [Compound 7],< 0.5 µM
3,Cc1nn(-c2ccnc(Nc3ccc(-c4csc5c(=O)cc(N6CCOCC6)oc45)cc3)n2)cc1CN1CCC1 [Compound 54],> 45 µM

# Molecular target: PI3K gamma (Homo sapiens, UniProt P48736)
# Assay: PI3K gamma in vitro inhibition
# Format: biochemical
# Settings: read-out: IC50 inhibition PI3K gamma
# Method: as §1, §2
# PI3K gamma, sequence (P48736 whole entry): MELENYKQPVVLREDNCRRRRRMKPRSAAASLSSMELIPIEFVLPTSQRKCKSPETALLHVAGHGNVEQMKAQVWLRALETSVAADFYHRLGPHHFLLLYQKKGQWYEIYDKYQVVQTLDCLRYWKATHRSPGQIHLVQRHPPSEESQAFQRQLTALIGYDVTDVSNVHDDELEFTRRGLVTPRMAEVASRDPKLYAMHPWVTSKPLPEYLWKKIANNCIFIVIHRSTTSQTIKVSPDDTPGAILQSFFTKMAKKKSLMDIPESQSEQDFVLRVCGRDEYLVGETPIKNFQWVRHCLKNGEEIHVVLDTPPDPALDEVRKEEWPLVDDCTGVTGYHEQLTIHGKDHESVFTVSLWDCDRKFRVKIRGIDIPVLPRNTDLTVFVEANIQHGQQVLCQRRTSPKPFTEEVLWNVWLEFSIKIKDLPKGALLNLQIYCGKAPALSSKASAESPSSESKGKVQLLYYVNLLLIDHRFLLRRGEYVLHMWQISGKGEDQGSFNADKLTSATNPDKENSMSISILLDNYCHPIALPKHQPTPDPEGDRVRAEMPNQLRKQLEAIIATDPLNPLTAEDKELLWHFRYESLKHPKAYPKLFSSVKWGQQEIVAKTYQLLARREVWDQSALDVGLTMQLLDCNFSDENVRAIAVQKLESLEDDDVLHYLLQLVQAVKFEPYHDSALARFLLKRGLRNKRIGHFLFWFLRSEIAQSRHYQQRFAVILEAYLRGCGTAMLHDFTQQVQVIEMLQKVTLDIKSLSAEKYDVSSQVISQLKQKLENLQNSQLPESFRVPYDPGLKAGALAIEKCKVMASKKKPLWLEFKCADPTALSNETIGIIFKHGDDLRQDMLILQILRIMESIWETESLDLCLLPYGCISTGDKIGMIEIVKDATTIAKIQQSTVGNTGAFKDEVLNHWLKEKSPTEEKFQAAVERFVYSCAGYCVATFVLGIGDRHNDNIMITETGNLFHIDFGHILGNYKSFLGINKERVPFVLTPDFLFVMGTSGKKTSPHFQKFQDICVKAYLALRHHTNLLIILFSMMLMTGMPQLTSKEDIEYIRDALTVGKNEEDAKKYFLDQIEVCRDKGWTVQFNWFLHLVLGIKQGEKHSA
row,Compound,IC50
1,CN(C)C(=O)c1cc2cnc(Nc3ccc(-c4csc5c(=O)cc(N6CCOCC6)oc45)cc3)nc2n1C1CCCC1 [Compound 6],1 to 10 µM
2,CN(C)C(=O)c1cc2cnc(Nc3ccc(-c4csc5c(=O)cc(N6CCOCC6)oc45)nc3)nc2n1C1CCCC1 [Compound 7],10 to 45 µM
3,Cc1nn(-c2ccnc(Nc3ccc(-c4csc5c(=O)cc(N6CCOCC6)oc45)cc3)n2)cc1CN1CCC1 [Compound 54],1 to 10 µM

# Molecular target: PI3K alpha (Homo sapiens, UniProt P42336)
# Assay: PI3K alpha in vitro inhibition
# Format: biochemical
# Settings: not given
# Method: as §1
# PI3K alpha, sequence (P42336 whole entry): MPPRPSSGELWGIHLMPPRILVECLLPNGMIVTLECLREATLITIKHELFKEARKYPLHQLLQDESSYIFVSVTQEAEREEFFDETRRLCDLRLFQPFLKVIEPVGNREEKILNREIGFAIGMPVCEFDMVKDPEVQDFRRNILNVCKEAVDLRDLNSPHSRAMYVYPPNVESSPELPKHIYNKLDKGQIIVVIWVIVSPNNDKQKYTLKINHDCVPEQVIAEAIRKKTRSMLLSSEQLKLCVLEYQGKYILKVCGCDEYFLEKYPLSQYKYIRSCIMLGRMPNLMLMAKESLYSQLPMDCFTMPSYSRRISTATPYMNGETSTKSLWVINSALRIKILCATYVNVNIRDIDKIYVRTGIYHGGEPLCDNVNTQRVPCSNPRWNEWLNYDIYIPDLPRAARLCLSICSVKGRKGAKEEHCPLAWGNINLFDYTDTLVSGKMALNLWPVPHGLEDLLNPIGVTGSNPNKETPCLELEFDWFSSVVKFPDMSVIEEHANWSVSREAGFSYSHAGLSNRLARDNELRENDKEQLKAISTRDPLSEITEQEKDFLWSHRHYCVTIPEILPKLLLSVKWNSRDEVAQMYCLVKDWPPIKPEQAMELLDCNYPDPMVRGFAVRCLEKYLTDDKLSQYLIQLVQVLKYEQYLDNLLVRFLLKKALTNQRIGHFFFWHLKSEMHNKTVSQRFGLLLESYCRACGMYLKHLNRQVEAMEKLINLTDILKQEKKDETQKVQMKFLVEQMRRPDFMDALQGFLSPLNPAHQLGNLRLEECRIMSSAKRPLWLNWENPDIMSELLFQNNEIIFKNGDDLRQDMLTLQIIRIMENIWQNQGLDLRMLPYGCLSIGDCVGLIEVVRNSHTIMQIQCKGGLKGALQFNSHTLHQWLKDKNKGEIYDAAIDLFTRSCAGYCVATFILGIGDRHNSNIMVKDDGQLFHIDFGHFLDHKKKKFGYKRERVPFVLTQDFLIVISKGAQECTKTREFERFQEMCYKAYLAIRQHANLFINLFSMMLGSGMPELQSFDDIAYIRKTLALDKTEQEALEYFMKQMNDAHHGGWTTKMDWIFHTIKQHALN
# PI3K alpha, sequence (P27986 whole entry partner): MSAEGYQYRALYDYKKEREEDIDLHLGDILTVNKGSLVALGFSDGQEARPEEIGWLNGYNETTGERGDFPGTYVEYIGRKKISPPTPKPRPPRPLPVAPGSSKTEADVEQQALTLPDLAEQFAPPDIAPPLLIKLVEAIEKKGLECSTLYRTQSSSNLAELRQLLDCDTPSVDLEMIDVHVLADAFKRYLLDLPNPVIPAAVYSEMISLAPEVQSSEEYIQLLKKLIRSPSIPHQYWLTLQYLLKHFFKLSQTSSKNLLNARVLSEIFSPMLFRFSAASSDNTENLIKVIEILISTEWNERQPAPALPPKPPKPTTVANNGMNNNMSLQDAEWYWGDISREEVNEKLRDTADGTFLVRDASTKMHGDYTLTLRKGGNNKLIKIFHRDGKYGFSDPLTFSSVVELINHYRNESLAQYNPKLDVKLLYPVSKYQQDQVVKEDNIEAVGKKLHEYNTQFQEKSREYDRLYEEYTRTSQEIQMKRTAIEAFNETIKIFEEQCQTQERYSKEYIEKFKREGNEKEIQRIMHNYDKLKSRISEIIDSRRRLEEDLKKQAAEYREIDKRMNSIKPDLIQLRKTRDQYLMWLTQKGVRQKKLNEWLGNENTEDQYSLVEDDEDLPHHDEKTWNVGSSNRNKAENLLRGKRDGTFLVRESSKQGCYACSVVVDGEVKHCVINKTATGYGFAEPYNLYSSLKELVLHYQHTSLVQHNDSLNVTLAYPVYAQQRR
row,Compound,IC50
1,CN(C)C(=O)c1cc2cnc(Nc3ccc(-c4csc5c(=O)cc(N6CCOCC6)oc45)nc3)nc2n1C1CCCC1 [Compound 7],1 to 10 µM
2,Cc1nn(-c2ccnc(Nc3ccc(-c4csc5c(=O)cc(N6CCOCC6)oc45)cc3)n2)cc1CN1CCC1 [Compound 54],< 0.5 µM

# Molecular target: T2, BRD4-2 (Homo sapiens, UniProt O60885)
# T2 construct: BRD4-2
# Assay: BRD4-2 in vitro inhibition
# Format: binding
# Settings: not given
# Method: as §1
row,Compound,IC50
1,CN(C)C(=O)c1cc2cnc(Nc3ccc(-c4csc5c(=O)cc(N6CCOCC6)oc45)nc3)nc2n1C1CCCC1 [Compound 7],1 to 10 µM
2,Cc1nn(-c2ccnc(Nc3ccc(-c4csc5c(=O)cc(N6CCOCC6)oc45)cc3)n2)cc1CN1CCC1 [Compound 54],1 to 10 µM

# Molecular target: Syk (Homo sapiens, UniProt P43405)
# Assay: Syk in vitro inhibition
# Format: biochemical
# Settings: not given
# Method: as §1, §2
row,Compound,IC50
1,Cc1nn(-c2ccnc(Nc3ccc(-c4csc5c(=O)cc(N6CCOCC6)oc45)cc3)n2)cc1CN1CCC1 [Compound 54],< 0.5 µM

# Molecular target: PI3K beta (Homo sapiens, UniProt P42338)
# Assay: PI3K beta in vitro inhibition
# Format: biochemical
# Settings: not given
# Method: as §1
row,Compound,IC50
1,CN(C)C(=O)c1cc2cnc(Nc3ccc(-c4csc5c(=O)cc(N6CCOCC6)oc45)nc3)nc2n1C1CCCC1 [Compound 7],10 to 45 µM

# Molecular target: PI3K delta (Homo sapiens, UniProt O00329)
# Assay: PI3K delta in vitro inhibition
# Format: biochemical
# Settings: not given
# Method: as §1, §2
# PI3K delta, sequence (O00329 whole entry): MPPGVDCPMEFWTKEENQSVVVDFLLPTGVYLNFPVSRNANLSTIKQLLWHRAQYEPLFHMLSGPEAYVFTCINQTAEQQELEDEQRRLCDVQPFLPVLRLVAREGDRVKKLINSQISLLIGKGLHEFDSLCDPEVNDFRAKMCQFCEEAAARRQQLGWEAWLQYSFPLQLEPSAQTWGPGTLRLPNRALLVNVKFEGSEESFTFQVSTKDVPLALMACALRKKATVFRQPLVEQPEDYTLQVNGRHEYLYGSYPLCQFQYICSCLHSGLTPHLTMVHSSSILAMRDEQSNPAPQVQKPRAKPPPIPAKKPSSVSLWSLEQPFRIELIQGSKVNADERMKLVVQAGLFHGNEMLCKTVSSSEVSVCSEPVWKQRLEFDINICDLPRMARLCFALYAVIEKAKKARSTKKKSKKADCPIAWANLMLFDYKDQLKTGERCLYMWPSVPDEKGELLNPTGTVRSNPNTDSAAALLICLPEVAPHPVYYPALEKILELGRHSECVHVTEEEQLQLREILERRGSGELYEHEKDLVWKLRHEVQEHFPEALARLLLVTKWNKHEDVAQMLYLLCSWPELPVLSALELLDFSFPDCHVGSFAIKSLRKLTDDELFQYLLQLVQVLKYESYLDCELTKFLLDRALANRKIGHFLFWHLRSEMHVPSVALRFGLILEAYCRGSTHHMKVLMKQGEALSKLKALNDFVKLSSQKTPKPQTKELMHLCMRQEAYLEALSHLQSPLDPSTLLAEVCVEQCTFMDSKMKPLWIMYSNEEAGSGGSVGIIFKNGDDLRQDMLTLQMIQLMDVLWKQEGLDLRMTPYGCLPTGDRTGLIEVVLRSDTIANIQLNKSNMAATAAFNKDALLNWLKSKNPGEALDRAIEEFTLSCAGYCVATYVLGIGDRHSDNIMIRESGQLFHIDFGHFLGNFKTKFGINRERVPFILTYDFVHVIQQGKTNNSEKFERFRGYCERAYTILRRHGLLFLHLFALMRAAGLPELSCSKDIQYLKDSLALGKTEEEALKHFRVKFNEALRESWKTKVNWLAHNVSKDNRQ
# PI3K delta, sequence (P27986 whole entry partner): as the sequence (P27986 whole entry partner) above
row,Compound,IC50
1,Cc1nn(-c2ccnc(Nc3ccc(-c4csc5c(=O)cc(N6CCOCC6)oc45)cc3)n2)cc1CN1CCC1 [Compound 54],< 0.5 µM

# Molecular target: CDK4 cyclinD1 (Homo sapiens, UniProt P11802)
# Assay: CDK4 cyclinD1 in vitro inhibition
# Format: biochemical
# Settings: not given
# Method: as §1, §2
# CDK4 cyclinD1, sequence (P11802 whole entry): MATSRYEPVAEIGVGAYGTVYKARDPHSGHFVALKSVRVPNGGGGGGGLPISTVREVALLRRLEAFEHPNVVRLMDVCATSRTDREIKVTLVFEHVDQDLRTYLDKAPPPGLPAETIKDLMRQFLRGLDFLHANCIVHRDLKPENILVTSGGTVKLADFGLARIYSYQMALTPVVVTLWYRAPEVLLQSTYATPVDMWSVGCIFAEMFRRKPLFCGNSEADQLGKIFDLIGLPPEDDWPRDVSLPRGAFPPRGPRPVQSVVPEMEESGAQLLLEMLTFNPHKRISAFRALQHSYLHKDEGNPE
# CDK4 cyclinD1, sequence (P24385 whole entry partner): as the sequence (P24385 whole entry partner) above
row,Compound,IC50
1,CN(C)C(=O)c1cc2cnc(Nc3ccc(-c4csc5c(=O)cc(N6CCOCC6)oc45)cc3)nc2n1C1CCCC1 [Compound 6],< 0.5 µM
2,CN(C)C(=O)c1cc2cnc(Nc3ccc(-c4csc5c(=O)cc(N6CCOCC6)oc45)nc3)nc2n1C1CCCC1 [Compound 7],< 0.5 µM
3,Cc1nn(-c2ccnc(Nc3ccc(-c4csc5c(=O)cc(N6CCOCC6)oc45)cc3)n2)cc1CN1CCC1 [Compound 54],> 45 µM
